Measured values as given in US20240366602A1, “COMBINATION THERAPY OF APELIN RECEPTOR AGONIST AND GLP-1 RECEPTOR AGONIST FOR TREATING A DISEASE OR CONDITION ASSOCIATED WITH WEIGHT GAIN” (BioAge Labs, Inc., priority 2023, published 2024).
“And” between values parts separate entries of the source, which are not always exact repeats. Identical values can stand only once. “Also recorded” adds a separate entry of the source.

Experiments:
[1] = system: healthy volunteers aged≥65 years; test: Phase 1b Part B (MD) 10-day bed rest muscle atrophy study; type: in vivo, human
Protocol: In Part B, of the 30 subjects enrolled, all of which are ≥65 years of age. […] In the multi-dose cohorts (1A, 1B, 1C), PD parameters for effects on changes in insulin sensitivity and muscle indices during a period of bed rest are measured and evaluated to better inform decisions regarding choice of dose and direction of further development.
In each of the 3 cohorts in Part B, 30 total subjects are enrolled to receive treatment in either Cohort 1A, Cohort 1B, or Cohort 1C. Cohort 1A includes 10 subjects who all receive placebo NS over a 1 hour infusion for 10 days on Days 1 through Day 10. […] Patients are at bed rest for the entire 10-day duration of treatment.
Vital signs was collected daily and include diastolic and systolic blood pressure and pulse. On Days −1, 1, 5, and 10, vital signs was collected at the following timepoints: predose (additionally temperature and respiratory rate), 0.25 h, 0.5 h, 0.75 h, 1 h, 2 h, 3 h, 4 h, 6 h, 8 h, and 12 h after the start of study drug infusion. Vital signs will also be collected on Day 10 (23 h) and before discharge on Day 12. • D. Safety laboratory tests include complete blood count, clinical chemistries, and urinalysis. • E. Samples are to be collected in the morning. Subjects are to be fasting from 10:00 PM onward (min 8 hours fast) each night but may drink as much water as requested. • F. ECGs are to be taken predose and immediately following the completion of the 1-hour infusion. On Day 11, an ECG will also be taken again 23 h after the start of the Day 10 study drug infusion. • G. AEs was recorded from the start time of the first consumption of heavy water until the end of the subject's participation in the study. At discharge from the unit, any ongoing AEs was documented in source and in EDC was followed until the event is resolved or stabilized. […] On Days 1, 5, and 10, PK samples were collected at the following timepoints: predose, 0.25 h, 0.5 h, 0.75 h, 1 h, 2 h, 3 h, 4 h, 6 h, 8 h, and 12 h after the start of study drug infusion. Samples will also be collected 24 h (Day 11), 48 h (Day 12), 72 h (Day 13), and 96 h (Day 14) after the start of the last infusion. PK samples were taken from the opposite arm used for the IV infusion. • J. Continuous cardiac ECG telemetry monitoring was used starting on Day 1 pre-dose and continuing through the end of dosing on Day 10. • K. Subjects were asked to remain in their beds, apart from using a wheelchair to be taken to the shower and they will shower seated. They will also use a wheelchair to get to and from the bathroom. When not in bed, subjects were in a wheelchair. • L. Subjects will wear the pneumatic compression cuffs the entire duration of bed rest, except for when in a wheelchair to use the bathroom and shower. • M. Muscle circumference, cross-sectional area, color flow analysis, AP diameter, and echo density of the vastus lateralis and gastrocnemius were measured by ultrasound. Ultrasound imaging must be conducted by the same technician throughout the study for all subjects. […]

[2] = system: immortalized muscle precursor cells from human patients; conditions: cited from earlier work
[3] = 14-day IV toxicity study in the rat; type: in vivo
Protocol: The updated exposure margins considering the highest maximum exposures in rats and dogs are calculated as follows: • Maximum exposure in the rat (male) was in the 14-day IV study and at the 300 mg/kg dose, the AUClast is 1070 μg*hr/mL. • Maximum exposure in dogs occurred at the 300 mg/kg dose in the 9-month oral toxicity study and the AUClast is 1310*μg·hr/mL.

[4] = Phase 1 study BGE-105-101 Part A (SAD) pharmacokinetics after IV infusion; type: in vivo, human; conditions: for Dose-normalized AUCinf / Dose-normalized Cmax: Mean, unit assumed
Protocol: In Part A, of 24 subjects enrolled (3 SAD cohorts, 8 subjects each), a total of at least 12 subjects are ≥65 years of age (≥4 subjects in each cohort). The remaining subjects are ≥18 years old.
After a baseline period of 24 hours in the clinic, all subjects receive a LD, 1-hour infusion on Day 1. After a 48-hour wash-out period, in which PK and PK/PD data iscollected, subjects receive a 23-hour infusion (1-hour LD followed by a 22-hour maintenance dose). See FIG. 45 for the different dose levels in each SAD cohort. See e.g., Table 33 below. Part A is double-blinded. The cohorts of Part A is conducted sequentially starting with SAD cohort 1.
On Day 1 for Part A, subjects receive LD, 1-hour infusion. On Day 3, after a 48-hour washout period, subjects then receive a 23-hour infusion (1-hour LD followed by a 22-hour MD). No earlier than 24 hours after the end of infusion, subjects is discharged from the clinic on Day 5 (End of Treatment Period [EOTP]). A treatment protocol for the SAD cohorts of Part A is described below: • a. Predose assessments (vital signs and PK assessments) should be done within 30 min of the start of infusion. • b. Vital signs include diastolic and systolic blood pressure and pulse. In addition, temperature and respiratory rate should be collected on predose Day 1 and EOT Day 5. • c. Safety laboratory tests include complete blood count, clinical chemistries, and urinalysis. • d. Assessments should be done within 1 hour after the end of the LD infusions on Day 1 and Day 3. • e. AEs was recorded from the start time of the first BGE-105 or placebo study drug infusion until the end of the subject's participation in the study. At discharge from the unit, any ongoing AEs was documented in source and in EDC be followed until the event is resolved or stabilized. Any new AEs occurring after discharge will clearly note the start date and end date. • f. Study drug was administered via IV infusion as a LD, 1-hour infusion on Day 1. After a 48-hour wash-out, study drug will then be administered as a 23-hour infusion (1-hour LD followed by a 22-hour MD). • g. Continuous cardiac ECG telemetry monitoring was used, continuing through the end of dosing on Day 4. • h. Blood samples for plasma insulin and glucose monitoring should be collected in the morning, before breakfast and after fasting overnight. • i. Assessments can be done any time after 24 hours after the end of infusion and before discharge.
Relevant plasma PK parameters are derived for BGE-105 by standard noncompartmental methods and tabulated along with descriptive statistics and graphs.

[5] = 10-day bed rest, BGE-105 240 mg daily (cohort MD 1B)
[6] = 10-day bed rest, BGE-105 240 mg daily (cohort MD 1B), vastus lateralis ultrasound
[7] = 10 days of bed rest, ultrasound
[8] = BGE-105 240 mg once daily IV for 10 days vs placebo

SMILES: COc1cccc(OC)c1-n1c(NS(=O)(=O)[C@@H](C)[C@H](C)c2ncc(C)cn2)nnc1-c1cncc(C)c1 [BGE-105, (2S,3R)—N-(4-(2,6-dimethoxyphenyl)-5-(5-methyl-3-pyridinyl)-4H-1,2,4-triazol-3-yl)-3-(5-methyl-2-pyrimidinyl)-2-butanesulfonamide]
- Muscle grade (progression), % change: baseline to D10 [1, 5]: −9%
- Thigh circumference, % change: baseline to D10 [1, 5]: +0.8%
- Cumulative protein synthesis, % change: baseline to D10 ([1]; 10-day bed rest, BGE-105 240 mg daily (cohort MD 1B), biopsy): 22%
- AP diameter (thickness), % change: baseline to D10 [1, 6]: −8.0%
- Cross-sectional area (CSA), % change: baseline to D10 [1, 6]: −5.7%
- Muscle quality grade worsened (grade 1 to grade 2), number of volunteers ([1]; 10-day bed rest, ultrasound echo density, placebo 8 of 10): 1 of 11 and 1 out of 11 and (1 out of 11)
- Synthesis of myofibrillar structural proteins such as myosin and troponin ([1]; 10 days bed rest, D2O method and muscle biopsy): preserved compared to placebo
- Muscle protein synthesis, muscle microbiopsy of vastus lateralis ([1]; 10 days of bed rest, bed rest-induced decrease, vs placebo): significantly ameliorated; also recorded: elevated rate of muscle protein synthesis
- Improvement in thigh circumference relative to placebo ([1]; 10 days of bed rest, n=11): 100%
- Improvement in vastus lateralis cross-sectional area relative to placebo [1, 7]: 58%
- Improvement in vastus lateralis thickness relative to placebo [1, 7]: 73%
- Reduction in loss of vastus lateralis cross-sectional area [1, 8]: > 50%
- Reduction in loss of vastus lateralis muscle thickness [1, 8]: 75%
- Mean normalized fraction synthetic rate ([1]; BGE-105 treated patients with elevated rate, after 10 days of bed rest): 0.18-2.2
- Improvement in muscle dimension (muscle size by ultrasound) ([1]; Cohort 1B vs Cohort 1A): ~75%
- Physical activity, step ratio by wearable activity device ([1]; Day 10 through Day 60 (post-bedrest), vs placebo): increase in physical activity; also recorded: more pronounced in the BGE-105 group
- Reduction of the cross-sectional area of the Vastus Lateralis ([1]; after 10-day bed rest, mean percent change from baseline, placebo 19.47%): 8.041%
- Reduction of vastus lateralis diameter ([1]; after 10-day bed rest, mean percent change from baseline, placebo 21.18%): 5.664%
- Patients with elevated rate of muscle protein synthesis ([1]; after 10 days of bed rest, placebo 3 out of 10): 8 out of 11
- Patients with elevated rate of muscle protein synthesis ([1]; after 10 days of bed rest, placebo 30%): about 72.7%
- Increase in thigh circumference ([1]; after the 10-day bed rest period, placebo 6.438% reduction): 0.8%
- Echo density measurements, increase ([1]; treatment group (Cohort 1B, 240 mg daily), placebo 6.4% decrease): 0.8%
- Cell growth and differentiation [2]: dose-dependent relationship between cell growth and differentiation, and concentration of BGE-105
- NOAEL [3]: maximum dose tested
- Dose proportionality of Cmax and AUC ([4]; 3 SAD cohorts, 95% confidence interval for slope includes 1): demonstrated dose proportionality; also recorded: linear across the dose range
- Dose-normalized AUCinf ([4]; SAD1 (60 mg/360 mg) Day 1): 0.66 µg·h/mL/mg
- Dose-normalized Cmax ([4]; SAD1 (60 mg/360 mg) Day 1): 0.12 µg/mL/mg
- Dose-normalized AUCinf ([4]; SAD2 (120 mg/720 mg) Day 1): 0.49 µg·h/mL/mg
- Dose-normalized Cmax ([4]; SAD2 (120 mg/720 mg) Day 1): 0.11 µg/mL/mg
- Dose-normalized AUCinf ([4]; SAD3 (240 mg/1440 mg) Day 1): 0.5 µg·h/mL/mg
- Dose-normalized Cmax ([4]; SAD3 (240 mg/1440 mg) Day 1): 0.11 µg/mL/mg
